Test results from patent US11746343B2, “Wheat plants having increased resistance to imidazolinone herbicides” (Northwest Plant Breeding Company, priority 2001, dated 2023).

Key:
[1] = system: AHAS enzyme from wild type Gunner wheat; test: in vitro AHAS enzyme activity, enzyme extracted from wild type wheat; format: biochemical, Triticum aestivum; set-up: unit of the concentration uncertain
Text: (§1) Both the AP205CL and AP602CL wheat plants are tolerant to imidazolinone herbicides due to a mutation of the AHAS enzyme that is resistant to inhibition by these herbicides in vitro. […] The values in FIG. 1 are expressed as a percent of uninhibited activity. […] This activity continues to decline to nearly 100 percent inhibition of the enzyme at higher herbicide concentrations ([…]). In contrast, the AHAS enzyme extracted from herbicide tolerant AP205CL plants retains nearly 90 percent of its activity at the […] imazamox concentration, and approximately one third of its activity at the higher (50 µM to 100 µM) concentrations. The AHAS enzyme extracted from herbicide tolerant AP602CL plants retains nearly 80-100 percent of its activity at the […] imazamox concentration, and nearly half of its activity at the higher ([…]) concentrations. These levels of activity are sufficient to allow the tolerant wheat plants to survive the application of imazamox, as was observed during the selection process (Example 1).
(§2) AHAS is known to be feedback inhibited by the branched chain amino acids. Valine and leucine in combination are especially effective inhibitors.

[2] = system: AHAS enzyme extracted from herbicide tolerant AP602CL plants; test: in vitro AHAS enzyme activity, enzyme extracted from AP602CL plants; format: biochemical, Triticum aestivum
Text: as §1, §2

[3] = system: HRS198208 (AP602CL) wheat plants; test: field plots and seed increases sprayed with imazamox, HRS198208 / AP602CL; format: in vivo, Triticum aestivum
Experimental: (§3) Progeny seed of HRS 198205 and HRS198208 were collected and planted in the field. Field plots were sprayed with imazamox herbicide at 80 g. a.i./ha.+1.0% Sun-It adjuvant (v/v). […] Additionally, seed harvested from plots of five of the HRS198208 sub-lines were combined into a single lot that was designated AP602CL (referred to above as Gunner IMI 208). Seed increases were conducted at several locations. All seed increases were sprayed with imazamox herbicide at 40 g. a.i./ha+0.25% (v/v) non-ionic surfactant.

[4] = system: AHAS extracted from Madsen1; test: in vitro AHAS activity, Madsen1 compared to wild type Madsen; format: biochemical, Triticum aestivum
Text: Because the tolerance in Madsen1 is due to a mutation in the AHAS enzyme rendering it resistant to inhibition by imidazolinone herbicides, the in vitro activity of AHAS extracted from wild type plants (not having the mutation for tolerance) can be compared to the in vitro activity of AHAS extracted from tolerant plants in the presence of varying concentrations of an imidazolinone (IMI) herbicide. Madsen1 was compared to the wild type variety Madsen.

[5] = system: AHAS enzyme extracted from herbicide tolerant AP205CL plants; test: in vitro AHAS enzyme activity, enzyme extracted from AP205CL plants; format: biochemical, Triticum aestivum
Text: as §1, §2

Madsen1 wheat plants = test: greenhouse trial of tolerance of Madsen1 to imazamox; format: in vivo, Triticum aestivum; conditions: 40 and 80 g/ha, 14 days after treatment, control Teal
Experimental: Madsen1 was evaluated for tolerance to the imidazolinone herbicide imazamox at 40 and 80 g/ha in a greenhouse trial. The susceptible wheat cultivar Teal was used as a control. Evaluation was made 14 days after treatment. Injury was scored on a 0-9 scale, 0 representing no injury and 9 representing plant death.

[6] = system: HRS 198205 (AP205CL) wheat plants; test: field plots and seed increases sprayed with imazamox, HRS 198205 / AP205CL; format: in vivo, Triticum aestivum
Experimental: as §3

Madsen1 wheat line = test: selection of tolerant Madsen line (M2 field, M3 greenhouse); format: in vivo, Triticum aestivum
Experimental: Seeds of the soft white winter wheat variety Madsen, were pre-soaked in tap water. After decanting the tap water, a solution of 0.03% EMS and 0.02% DES was poured into the seed container. The container was shaken every 10-15 minutes during the course of a two-hour treatment. The EMS and DES solution was decanted and a solution of 0.02% sodium azide in 0.001 M phosphate buffer was added. The container again was shaken every 10-15 minutes during the course of a two-hour treatment. Seeds were then rinsed in tap water and dried. After drying, seeds were planted. Planted seeds represented the M1 generation. M1 plants were allowed to self-pollinate and the M2 seed harvested as a bulk. Approximately 0.2 hectares of M2 seed were planted in the field and resultant plants treated with an imazamox rate of 40 g. ai/ha. Twelve M2 plants were identified as tolerant. These plants were dug, and sent to Pullman, Wash. for vernalization and M3 seed production. M3 seed from each of the M2 plants were planted in the greenhouse and resultant plants were vernalized for 8 weeks, then treated with 80 g. ai/ha of Imazamox. Plants were selected based upon observed levels of tolerance and repotted for seed production. The M2:3 line designated Madsen1 selected as tolerant to 40 g/ha imazamox as an M2 was confirmed as tolerant to imazamox at the 80 g/ha rate applied to M3 progeny.

COCc1cnc(C2=NC(C)(C(C)C)C(=O)N2)c(C(=O)O)c1 (stereo not drawn) [imazamox]
inhibition of the AHAS enzyme ([1]; higher herbicide concentrations (100 (unit uncertain))): ~100%
reduction of AHAS activity ([1]; low concentration (1 (unit uncertain)) of imazamox): 1 to 35%
AHAS activity retained ([2]; 1 M imazamox): 80-100%
AHAS activity retained (fraction of its activity) ([2]; higher (50 µM to 100 µM) imazamox concentrations): half
herbicide susceptible plants in seed increases ([3]; 40 g. a.i./ha + 0.25% (v/v) non-ionic surfactant, AP602CL): No herbicide susceptible plants were observed
tolerance in field plots ([3]; 80 g. a.i./ha + 1.0% Sun-It adjuvant (v/v), HRS198208): same level of acceptable tolerance
residual uninhibited AHAS ([4]; 100 μM imazamox, Madsen1): sufficient to provide a herbicide tolerant response
uninhibited AHAS enzyme activity as imazamox concentration increased ([4]; Madsen1 compared to wild type Madsen): decreased faster in wild type lines than in Madsen)
AHAS activity retained ([5]; 1 M imazamox): ~90%
AHAS activity retained (fraction of its activity) ([5]; higher (50 M to 100 µM) imazamox concentrations): approximately one third
tolerance (injury scored on a 0-9 scale) (Madsen1 wheat plants): has tolerance
herbicide susceptible plants in seed increases ([6]; 40 g. a.i./ha + 0.25% (v/v) non-ionic surfactant, AP205CL): No herbicide susceptible plants were observed
tolerance in field plots ([6]; 80 g. a.i./ha + 1.0% Sun-It adjuvant (v/v), HRS 198205): same level of acceptable tolerance
tolerance of M2 plants (Madsen1 wheat line; 40 g/ha imazamox, field, M2): tolerant
tolerance of M3 progeny (Madsen1 wheat line; 80 g/ha imazamox, greenhouse, M3 progeny): tolerant
